Several values for one entry are separate records, joined by “and”; a condition that tells them apart may be missing. Equal values may be shown once.
Assay: Feline safety study: cannabidiol quantification in serum and pharmacokinetics (LC-MS/MS)
Assay type: in vivo
Conditions: individual cats; oral administration of 2/mg/kg cannabidiol in capsule form
Method: On the first day of dosing, blood was collected for a PK analysis from 6 of the 8 cats. The most cooperative cats were selected for the PK analysis. […] Samples were placed into a red top clotting tube with no serum separator. […] The harvested serum was placed in cyrovials stored at −70° C. Each tube was labeled with the cat id, date of collection and collection time point. Samples were shipped overnight on dry ice to the Proteomics & Metabolomics Facility at Colorado State University.
Aliquots of feline serum were delivered to the facility on dry ice and stored at −80° C. upon receipt. […] 200 μL of cold (−20 C) 100% Acetonitrile (spiked with 60 ng/mL of d3-CBD) was added to each sample and vortexed at room temperature for 5 minutes. 200 μL of water was added and vortexed for an additional 5 minutes. 1 ml of 100% hexane was then added to each sample and vortexed for a final 5 minutes. […] The upper hexane layer was transferred to new-labeled glass vials (˜900 uL per sample), carefully avoiding the middle and lower layers. Samples were concentrated to dryness under N2 and resuspended in 60 μL of 100% acetonitrile.
An 8 point standard curve of CBD was generated in matrix background using a blank serum. Concentrations ranged from 0 ng/mL 1000 ng/mL (3.2× dilution series). 50 uL of each spiked serum sample was extracted as above.
LC-MS/MS was performed on a Waters Acquity M-Class UPLC coupled to a Waters Xevo TQ-S triple quadrupole mass spectrometer. […] Flow rate was 3.0 μL/min and injection volume was 2.0 μL. Samples were held at 6° C. in the autosampler, and the column was operated at 70° C. The MS was operated in selected reaction monitoring (SRM) mode, where a parent ion is selected by the first quadrupole, fragmented in the collision cell, then a fragment ion selected for by the third quadrupole. Product ions, collision energies, and cone voltages were optimized for each analyte by direct injection of individual synthetic standards. Inter-channel delay was set to 3 ms. The MS was operated in positive ionization mode with the capillary voltage set to 3.6 kV. […]
All Raw data files were imported into the Skyline open source software package. […] Peak areas were extracted for target compounds detected in biological samples and normalized to the peak area of the appropriate internal standard in each sample using in-house R Script (TQS-tools). CBD concentrations were calculated in nanograms per milliliter of extract (0.06 mL) and then back calculated to nanograms per mL of serum (0.05 mL of serum). […]
LOD are calculated based on the standard deviation of the response (Sy) of the 0 point calibration standard (i.e. 0 ng/mL CBD as an estimate on noise) and the slope of the calibration curve (S) at levels approximating the LOD according to the formula: LOD=3*(Sy/S). […]

## C=C(C)[C@@H]1CCC(C)=C[C@H]1c1c(O)cc(CCCCC)cc1O [cannabidiol]
  AUC 0-t = Area under the curve (0 time to time of last collection [24 hr]): 265.0 ng·h/mL and 54.2 ng·h/mL and 42.4 ng·h/mL and 212.2 ng·h/mL and 125.0 ng·h/mL and 194.1 ng·h/mL and 134.2 ng·h/mL and 60.2 ng·h/mL
  Cmax = Maximum concentration: 8.8 ng/mL and 12.1 ng/mL and 75.3 ng/mL and 40.5 ng/mL and 53.3 ng/mL and 21.2 ng/mL
  Tmax = Time of maximum concentration: 4 h and 1 h
  T½ el = Half-life of elimination: 2.3 h and 1.3 h and 1.7 h

Reference: patent US11712456B2, “Hemp extract for treatment of pain in animals” (Portland Technology Holdings LLC, priority 2018, dated 2023)
